Read-outs that look alike come from different tables or passages of the source.
Columns and labels:
mutant HIV-1 I84V/L90M = assay: Resistance Evaluation, I84V/L90M fold change; type: cell-based; conditions: EC50 of mutant I84V/L90M relative to wild type; class symbols
[1] = tested on: wild-type HIV-1 strain IIIB; assay: microbe, parasite or virus in culture; type: cell-based; set-up: scale not given here
[2] = Human immunodeficiency virus 1, IIIB

Row | Compound | EC50 [1, 2] | further results
1 | CCOP(=O)(CN1CC=C(CC(NC(=O)OC2COC3OCCC23)C(O)CN(CC(C)C)S(=O)(=O)c2ccc(OC)cc2)CC1)OCC (stereo not drawn) |  | I84V/L90M fold change (mutant HIV-1 I84V/L90M): + (>3 to ≦10)
2 | CCOP(=O)(CCC1=CCN(CC(NC(=O)OC2COC3OCCC23)C(O)CN(CC(C)C)S(=O)(=O)c2ccc(OC)cc2)CC1)OCC (stereo not drawn) |  | I84V/L90M fold change (mutant HIV-1 I84V/L90M): + (>3 to ≦10)
3 | CCOP(=O)(Cc1ccc(NCC(NC(=O)OC2COC3OCCC23)C(O)CN(CC(C)C)S(=O)(=O)c2ccc(OC)cc2)cc1)OCC (stereo not drawn) |  | I84V/L90M fold change (mutant HIV-1 I84V/L90M): + (>3 to ≦10)
4 | CCOP(=O)(Cc1ccc(N(C)CC(NC(=O)OC2COC3OCCC23)C(O)CN(CC(C)C)S(=O)(=O)c2ccc(OC)cc2)cc1)OCC (stereo not drawn) |  | I84V/L90M fold change (mutant HIV-1 I84V/L90M): + (>3 to ≦10)
5 | CCOP(=O)(Cc1ccc(CN(C)CC(NC(=O)OC2COC3OCCC23)C(O)CN(CC(C)C)S(=O)(=O)c2ccc(OC)cc2)cc1)OCC (stereo not drawn) |  | I84V/L90M fold change (mutant HIV-1 I84V/L90M): − (≦3)
6 | CCOP(=O)(Cc1ccc2c(c1)CCN(CC(NC(=O)OC1COC3OCCC13)C(O)CN(CC(C)C)S(=O)(=O)c1ccc(OC)cc1)C2)OCC (stereo not drawn) |  | I84V/L90M fold change (mutant HIV-1 I84V/L90M): + (>3 to ≦10)
7 | CC(C)CN(C[C@@H](OP(=O)(O)O)[C@H](Cc1ccccc1)NC(=O)O[C@H]1CCOC1)S(=O)(=O)c1ccc(N)cc1 [Phosphate prodrug of ampenavir] |  | EC50 ([1]; read-out: EC50): 50 to 500 nM
8 | CC(C)CN(C[C@@H](O)[C@H](Cc1ccccc1)NC(=O)O[C@H]1CO[C@H]2OCC[C@H]21)S(=O)(=O)c1ccc(N)cc1 [TMC114, reference compound] | < 50 nM | 
9 | COc1ccc(S(=O)(=O)N(CC(C)C)CC(O)C(Cc2ccc(OCP(=O)(OCC(F)(F)F)OCC(F)(F)F)cc2)NC(=O)OC2COC3OCCC23)cc1 (stereo not drawn) [drawing 608 R1=OCH2CF3 R2=OCH2CF3] | > 5000 nM | 
10 | CCOP(=O)(COc1ccc(CC(NC(=O)OC2COC3OCCC23)C(O)CN(CC(C)C)S(=O)(=O)c2ccc(OC)cc2)cc1)OCC (stereo not drawn) [drawing 608 R1=OEt R2=OEt] | < 50 nM | 
11 | COc1ccc(S(=O)(=O)N(CC(C)C)CC(O)C(Cc2ccc(OCP(=O)(OC)OC)cc2)NC(=O)OC2COC3OCCC23)cc1 (stereo not drawn) [drawing 608 R1=OMe R2=OMe] | < 50 nM | 
12 | COc1ccc(S(=O)(=O)N(CC(C)C)CC(O)C(Cc2ccc(OCP(=O)(OC(C)C)OC(C)C)cc2)NC(=O)OC2COC3OCCC23)cc1 (stereo not drawn) [drawing 608 R1=OiPr R2=OiPr] | < 50 nM | 
13 | CCOP(=O)(COc1ccc(CC(NC(=O)OC2COC3OCCC23)C(O)CN(CC(C)C)S(=O)(=O)c2ccc(O)cc2)cc1)OCC (stereo not drawn) [drawing 609 R1=Et R2=Et] | < 50 nM | 
14 | CC(C)CN(CC(O)C(Cc1ccc(OCP(=O)(O)O)cc1)NC(=O)OC1COC2OCCC12)S(=O)(=O)c1ccc(O)cc1 (stereo not drawn) [drawing 609 R1=OH R2=OH] | 500 to 5000 nM | 
15 | CCCCOC(=O)C(C)NP(=O)(COc1ccc(CC(NC(=O)OC2COC3OCCC23)C(O)CN(CC(C)C)S(=O)(=O)c2ccc(OC)cc2)cc1)NC(C)C(=O)OCCCC (stereo not drawn) [drawing 612 R1=Ala-Bu R2=Ala-Bu] | < 50 nM | 
16 | CCCCOC(=O)CNP(=O)(COc1ccc(CC(NC(=O)OC2COC3OCCC23)C(O)CN(CC(C)C)S(=O)(=O)c2ccc(OC)cc2)cc1)NCC(=O)OCCCC (stereo not drawn) [drawing 612 R1=Gly-Bu R2=Gly-Bu] | < 50 nM | 
17 | CCOC(=O)CNP(=O)(COc1ccc(CC(NC(=O)OC2COC3OCCC23)C(O)CN(CC(C)C)S(=O)(=O)c2ccc(OC)cc2)cc1)NCC(=O)OCC (stereo not drawn) [drawing 612 R1=Gly-Et R2=Gly-Et] | 50 to 500 nM | 
18 | CCOC(=O)C(CC(C)C)NP(=O)(COc1ccc(CC(NC(=O)OC2COC3OCCC23)C(O)CN(CC(C)C)S(=O)(=O)c2ccc(OC)cc2)cc1)NC(CC(C)C)C(=O)OCC (stereo not drawn) [drawing 612 R1=Leu-Et R2=Leu-Et] | < 50 nM | 
19 | COc1ccc(S(=O)(=O)N(CC(C)C)CC(O)C(Cc2ccc(OCP(=O)(O)NC(C)C(=O)O)cc2)NC(=O)OC2COC3OCCC23)cc1 (stereo not drawn) [drawing 614 R1=OH R2=Ala-OH] | > 5000 nM | 
20 | CCOP(=O)(CCNCc1ccc(CC(NC(=O)OC2COC3OCCC23)C(O)CN(CC(C)C)S(=O)(=O)c2ccc(OC)cc2)cc1)OCC (stereo not drawn) [drawing 619 R1=Et R2=Et] |  | EC50 [1]: + + +
21 | COc1ccc(S(=O)(=O)N(CC(C)C)CC(O)C(Cc2ccc(CNCCP(=O)(O)O)cc2)NC(=O)OC2COC3OCCC23)cc1 (stereo not drawn) [drawing 619 R1=H R2=H] | > 5000 nM | 
